The record followed here is US20250235543A1, “MODIFIED PROTEINS AND PROTEIN DEGRADERS” (Cullgen (Shanghai), Inc., priority 2021, published 2025).

One test concerns cyclin D1. Description: Cyclin D1 percentage degradation in Calu-1 cells (immunoblotting). The following applies: 200 nM, 16 hours. Format: cell-based. In outline:
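Cells were rinsed once in cold PBS and lysed in cold RIPA buffer containing protease and phosphatase inhibitors, with gentle agitation at 4° C. for 30 min. Lysates were spun at 13,000 rpm for 10 min at 4° C., protein was measured by BCA, and samples were boiled in Laemmli buffer at 99° C. for 5 min before SDS-PAGE immunoblotting.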
On the technique in general: Immunoblotting shows a protein as a band on a membrane.

Another test deals with T1, CDK4 (Homo sapiens, UniProt P11802).
T1 construct: endogenous in cells; host or cells: Calu-1
As to the kind of experiment: CDK4 percentage degradation in Calu-1 cells (immunoblotting). Format: cell-based. The following applies: read-out: CDK4 Degradation (200 nM). The essentials: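 Cultured cells were rinsed once in cold PBS and lysed in cold RIPA buffer containing protease and phosphatase inhibitors, with gentle agitation at 4° C. for 30 min. Lysates were centrifuged at 13,000 rpm for 10 min at 4° C., and protein was quantified by BCA. Samples were then separated by SDS-PAGE, detected with ECL, and the CDK4 bands quantified in Image Lab.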

Read-outs that look alike come from different tables or passages of the source.

T1 sequence (P11802 2-303 limits assumed): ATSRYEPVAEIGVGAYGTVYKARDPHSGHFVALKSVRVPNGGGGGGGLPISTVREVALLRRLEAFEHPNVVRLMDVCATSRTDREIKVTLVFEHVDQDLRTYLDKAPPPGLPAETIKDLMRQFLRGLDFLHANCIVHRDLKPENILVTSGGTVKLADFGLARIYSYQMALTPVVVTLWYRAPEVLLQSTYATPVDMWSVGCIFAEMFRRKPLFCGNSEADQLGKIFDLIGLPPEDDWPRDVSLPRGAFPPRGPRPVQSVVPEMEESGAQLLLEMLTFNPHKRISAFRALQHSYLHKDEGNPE
T1 sequence (P24385 whole entry partner): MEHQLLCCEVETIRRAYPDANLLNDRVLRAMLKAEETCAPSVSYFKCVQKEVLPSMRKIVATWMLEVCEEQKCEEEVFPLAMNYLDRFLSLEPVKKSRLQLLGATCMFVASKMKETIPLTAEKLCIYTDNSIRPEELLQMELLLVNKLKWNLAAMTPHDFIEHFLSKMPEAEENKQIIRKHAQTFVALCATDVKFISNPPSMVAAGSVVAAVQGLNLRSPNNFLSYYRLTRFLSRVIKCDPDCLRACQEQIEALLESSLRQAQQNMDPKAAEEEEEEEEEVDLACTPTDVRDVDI
T1 sequence (Q16531 2-1140 limits assumed, further chain): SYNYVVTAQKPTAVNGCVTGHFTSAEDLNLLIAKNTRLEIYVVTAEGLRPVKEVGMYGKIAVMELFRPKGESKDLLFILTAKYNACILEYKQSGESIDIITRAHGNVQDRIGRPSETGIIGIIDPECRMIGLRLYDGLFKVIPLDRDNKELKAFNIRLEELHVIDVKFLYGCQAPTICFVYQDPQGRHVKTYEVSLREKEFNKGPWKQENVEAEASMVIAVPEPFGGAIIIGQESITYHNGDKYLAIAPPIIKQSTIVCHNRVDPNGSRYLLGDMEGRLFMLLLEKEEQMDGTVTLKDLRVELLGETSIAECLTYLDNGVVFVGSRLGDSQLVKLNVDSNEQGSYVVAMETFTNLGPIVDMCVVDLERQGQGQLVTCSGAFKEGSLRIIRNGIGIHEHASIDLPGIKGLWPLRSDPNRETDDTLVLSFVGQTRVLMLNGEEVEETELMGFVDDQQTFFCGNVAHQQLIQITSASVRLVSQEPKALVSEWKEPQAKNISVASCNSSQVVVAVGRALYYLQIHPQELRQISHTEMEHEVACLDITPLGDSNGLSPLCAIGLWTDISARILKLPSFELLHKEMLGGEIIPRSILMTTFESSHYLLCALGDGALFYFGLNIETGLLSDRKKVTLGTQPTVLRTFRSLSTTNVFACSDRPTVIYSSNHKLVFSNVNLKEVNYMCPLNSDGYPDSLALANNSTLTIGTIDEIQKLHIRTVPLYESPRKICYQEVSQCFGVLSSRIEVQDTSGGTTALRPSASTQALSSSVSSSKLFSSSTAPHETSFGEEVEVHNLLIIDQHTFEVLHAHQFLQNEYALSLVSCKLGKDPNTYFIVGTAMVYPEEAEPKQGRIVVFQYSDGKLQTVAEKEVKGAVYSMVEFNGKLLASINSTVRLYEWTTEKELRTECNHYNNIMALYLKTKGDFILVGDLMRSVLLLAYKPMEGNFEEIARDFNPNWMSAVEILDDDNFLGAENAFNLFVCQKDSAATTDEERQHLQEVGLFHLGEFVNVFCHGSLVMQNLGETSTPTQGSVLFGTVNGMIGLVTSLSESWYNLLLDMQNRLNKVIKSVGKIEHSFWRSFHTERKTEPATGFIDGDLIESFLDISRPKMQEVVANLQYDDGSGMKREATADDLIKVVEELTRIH

Take `CC(=O)c1c(C)c2cnc(Nc3ccc(N4CCN(CC(=O)NCCOCCOCCC(=O)Nc5cc(F)ccc5C(=O)Nc5nc(C)c(C)s5)CC4)cn3)nc2n(C2CCCC2)c1=O` [CPD-143, 2-(3-(2-(2-(2-(4-(6-((6-Acetyl-8-cyclopentyl-5-methyl-7-oxo-7,8-dihydropyrido[2,3-d]pyrimidin-2-yl)amino)pyridin-3-yl)piperazin-1-yl)acetamido)ethoxy)ethoxy)propanamido)-N-(4,5-dimethylthiazol-2-yl)-4-fluorobenzamide]: the “CyclinD1 Degradation (200 nM)” value with cyclin D1 was “A (protein percentage degradation >=80%)”. For the same molecule, on CDK4 (Calu-1 cells, 200 nM, 16 hours), the inhibition at 0.2 µM is > 80%.
In the case of `CC(=O)c1c(C)c2cnc(Nc3ccc(N4CCN(CC(=O)NCCOCCOCCC(=O)Nc5cc(Br)ccc5C(=O)Nc5nc(C)c(C)s5)CC4)cn3)nc2n(C2CCCC2)c1=O` [CPD-144, 2-(3-(2-(2-(2-(4-(6-((6-Acetyl-8-cyclopentyl-5-methyl-7-oxo-7,8-dihydropyrido[2,3-d]pyrimidin-2-yl)amino)pyridin-3-yl)piperazin-1-yl)acetamido)ethoxy)ethoxy)propanamido)-4-bromo-N-(4,5-dimethylthiazol-2-yl)benzamide], the “CyclinD1 Degradation (200 nM)” value in the test on cyclin D1 is listed as “A (protein percentage degradation >=80%)”. In addition, the inhibition at 0.2 µM at CDK4 (Calu-1 cells, 200 nM, 16 hours) is 50 to 80%.
As for `CC(=O)c1c(C)c2cnc(Nc3ccc(N4CCN(CC(=O)NCCOCCOCCC(=O)Nc5ccc(Br)cc5C(=O)Nc5nc(C)c(C)s5)CC4)cn3)nc2n(C2CCCC2)c1=O` [CPD-145, 2-(3-(2-(2-(2-(4-(6-((6-Acetyl-8-cyclopentyl-5-methyl-7-oxo-7,8-dihydropyrido[2,3-d]pyrimidin-2-yl)amino)pyridin-3-yl)piperazin-1-yl)acetamido)ethoxy)ethoxy)propanamido)-5-bromo-N-(4,5-dimethylthiazol-2-yl)benzamide], the “CyclinD1 Degradation (200 nM)” value in the test on cyclin D1 is “D (protein percentage degradation <30%)”. Also, on CDK4 (Calu-1 cells, 200 nM, 16 hours), the inhibition at 0.2 µM is < 30%.
With `CC(=O)c1c(C)c2cnc(Nc3ccc(N4CCN(CC(=O)NCCC(=O)Nc5ccccc5C(=O)Nc5nc(C)c(C)s5)CC4)cn3)nc2n(C2CCCC2)c1=O` [CPD-146, 2-(3-(2-(4-(6-((6-Acetyl-8-cyclopentyl-5-methyl-7-oxo-7,8-dihydropyrido[2,3-d]pyrimidin-2-yl)amino)pyridin-3-yl)piperazin-1-yl)acetamido)propanamido)-N-(4,5-dimethylthiazol-2-yl)benzamide], the “CyclinD1 Degradation (200 nM)” value in the test with cyclin D1 is reported as “D (protein percentage degradation <30%)”. Moreover, the inhibition at 0.2 µM on CDK4 (Calu-1, 16 h) was < 30%.
For `CC(=O)c1c(C)c2cnc(Nc3ccc(N4CCN(CC(=O)NCCOCCC(=O)Nc5ccccc5C(=O)Nc5nc(C)c(C)s5)CC4)cn3)nc2n(C2CCCC2)c1=O` [CPD-147, 2-(3-(2-(2-(4-(6-((6-Acetyl-8-cyclopentyl-5-methyl-7-oxo-7,8-dihydropyrido[2,3-d]pyrimidin-2-yl)amino)pyridin-3-yl)piperazin-1-yl)acetamido)ethoxy)propanamido)-N-(4,5-dimethylthiazol-2-yl)benzamide], the “CyclinD1 Degradation (200 nM)” value in the test with cyclin D1 is given as “D (protein percentage degradation <30%)”. In addition, the inhibition at 0.2 µM on CDK4 (Calu-1 cells, 200 nM, 16 hours) was < 30%.
As to `CCCCNc1ccc(NC(=O)CCOCCOCCNC(=O)CN2CCN(c3ccc(Nc4ncc5c(C)c(C(C)=O)c(=O)n(C6CCCC6)c5n4)nc3)CC2)c(C(=O)Nc2nc(C)c(C)s2)c1` [CPD-148, 2-(3-(2-(2-(2-(4-(6-((6-Acetyl-8-cyclopentyl-5-methyl-7-oxo-7,8-dihydropyrido[2,3-d]pyrimidin-2-yl)amino)pyridin-3-yl)piperazin-1-yl)acetamido)ethoxy)ethoxy)propanamido)-5-(butylamino)-N-(4,5-dimethylthiazol-2-yl)benzamide], in the test on cyclin D1, the “CyclinD1 Degradation (200 nM)” value is recorded as “D (protein percentage degradation <30%)”. Also, on CDK4 (Calu-1 cells, 200 nM, 16 hours), the inhibition at 0.2 µM is < 30%.
Consider `CC(=O)c1c(C)c2cnc(Nc3ccc(N4CCN(CC(=O)NCCOCCOCCC(=O)Nc5cc(C)ccc5C(=O)Nc5nc(C)c(C)s5)CC4)cn3)nc2n(C2CCCC2)c1=O` [CPD-149, 2-(3-(2-(2-(2-(4-(6-((6-Acetyl-8-cyclopentyl-5-methyl-7-oxo-7,8-dihydropyrido[2,3-d]pyrimidin-2-yl)amino)pyridin-3-yl)piperazin-1-yl)acetamido)ethoxy)ethoxy)propanamido)-N-(4,5-dimethylthiazol-2-yl)-4-methylbenzamide], for which, in the test on cyclin D1, the “CyclinD1 Degradation (200 nM)” value is reported as “A (protein percentage degradation >=80%)”. Further, on CDK4 (Calu-1 cells, 200 nM, 16 hours), the inhibition at 0.2 µM is > 80%.
For the molecule `CNc1ccc(NC(=O)CCOCCOCCNC(=O)CN2CCN(c3ccc(Nc4ncc5c(C)c(C(C)=O)c(=O)n(C6CCCC6)c5n4)nc3)CC2)c(C(=O)Nc2nc(C)c(C)s2)c1` [CPD-150, 2-(3-(2-(2-(2-(4-(6-((6-Acetyl-8-cyclopentyl-5-methyl-7-oxo-7,8-dihydropyrido[2,3-d]pyrimidin-2-yl)amino)pyridin-3-yl)piperazin-1-yl)acetamido)ethoxy)ethoxy)propanamido)-N-(4,5-dimethylthiazol-2-yl)-5-(methylamino)benzamide], the “CyclinD1 Degradation (200 nM)” value with cyclin D1 is recorded as “A (protein percentage degradation >=80%)”. Moreover, the inhibition at 0.2 µM on CDK4 (Calu-1 cells, 200 nM, 16 hours) was 50 to 80%.
Take `CC(=O)c1c(C)c2cnc(Nc3ccc(N4CCN(CC(=O)NCCOCCOCCC(=O)Nc5ccc(N(C)C)cc5C(=O)Nc5nc(C)c(C)s5)CC4)cn3)nc2n(C2CCCC2)c1=O` [CPD-151, 2-(3-(2-(2-(2-(4-(6-((6-Acetyl-8-cyclopentyl-5-methyl-7-oxo-7,8-dihydropyrido[2,3-d]pyrimidin-2-yl)amino)pyridin-3-yl)piperazin-1-yl)acetamido)ethoxy)ethoxy)propanamido)-5-(dimethylamino)-N-(4,5-dimethylthiazol-2-yl)benzamide]: the “CyclinD1 Degradation (200 nM)” value in the test with cyclin D1 is “C (protein percentage degradation <50%, and >=30%)”. Moreover, the inhibition at 0.2 µM at CDK4 (Calu-1 cells, 200 nM, 16 hours) was in the range of 50 to 80%.
Turning to `CC(=O)c1c(C)c2cnc(Nc3ccc(N4CCN(CC(=O)NCCOCCOCCC(=O)Nc5ccc(F)cc5C(=O)Nc5nc(C)c(C)s5)CC4)cn3)nc2n(C2CCCC2)c1=O` [CPD-152, 2-(3-(2-(2-(2-(4-(6-((6-Acetyl-8-cyclopentyl-5-methyl-7-oxo-7,8-dihydropyrido[2,3-d]pyrimidin-2-yl)amino)pyridin-3-yl)piperazin-1-yl)acetamido)ethoxy)ethoxy)propanamido)-N-(4,5-dimethylthiazol-2-yl)-5-fluorobenzamide], the “CyclinD1 Degradation (200 nM)” value with cyclin D1 is “A (protein percentage degradation >=80%)”. The inhibition at 0.2 µM on CDK4 (Calu-1 cells, 200 nM, 16 hours) fell in the range of 50 to 80%.
Consider `CC(=O)c1c(C)c2cnc(Nc3ccc(N4CCN(C(=O)CCC(=O)Nc5ccccc5C(=O)Nc5nc(C)c(C)s5)CC4)cn3)nc2n(C2CCCC2)c1=O` [CPD-153, 2-(4-(4-(6-((6-Acetyl-8-cyclopentyl-5-methyl-7-oxo-7,8-dihydropyrido[2,3-d]pyrimidin-2-yl)amino)pyridin-3-yl)piperazin-1-yl)-4-oxobutanamido)-N-(4,5-dimethylthiazol-2-yl)benzamide], for which, in the test on cyclin D1, the “CyclinD1 Degradation (200 nM)” value is listed as “D (protein percentage degradation <30%)”. The inhibition at 0.2 µM on CDK4 (Calu-1, 16 h) was < 30%.
